# Laboratory results published in PubChem BioAssay (NCI).
#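 The compound was tested at five concentrations on cells cultured in 96-well plates, with a 48-hour exposure period. Definition used: TGI = concentration required for complete inhibition of growth.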
# Key:
# Assay in all cases: NCI-60 cell line screen, 48 h
# SNB-78 CNS = system: SNB-78 CNS
# HOP-18 NSCLC = system: HOP-18 NSCLC
# OVCAR-4 ovarian = system: OVCAR-4 ovarian
# HOP-62 NSCLC = system: HOP-62 NSCLC
# OVCAR-3 ovarian = system: OVCAR-3 ovarian
# UO-31 renal = system: UO-31 renal
# 786-0 renal = system: 786-0 renal
# SNB-19 CNS = system: SNB-19 CNS
# IGROV1 ovarian = system: IGROV1 ovarian
# UACC-257 melanoma = system: UACC-257 melanoma
# SN12C renal = system: SN12C renal
# HL-60(TB) leukemia = system: HL-60(TB) leukemia
# A549 NSCLC = system: A549 NSCLC
# CAKI-1 renal = system: CAKI-1 renal
# OVCAR-5 ovarian = system: OVCAR-5 ovarian
# MOLT-4 leukemia = system: MOLT-4 leukemia
# SNB-75 CNS = system: SNB-75 CNS
# SK-MEL-28 melanoma = system: SK-MEL-28 melanoma
# LXFL 529 NSCLC = system: LXFL 529 NSCLC
# HCC-2998 colon = system: HCC-2998 colon
# CCRF-CEM leukemia = system: CCRF-CEM leukemia
# KM12 colon = system: KM12 colon
# DMS 114 small cell lung = system: DMS 114 small cell lung
# SF-295 CNS = system: SF-295 CNS
# KM20L2 colon = system: KM20L2 colon
# MALME-3M melanoma = system: MALME-3M melanoma
# TK-10 renal = system: TK-10 renal
# SW-620 colon = system: SW-620 colon
# NCI-H522 lung = system: NCI-H522 lung
# ACHN renal = system: ACHN renal
# EKVX NSCLC = system: EKVX NSCLC
# A498 renal = system: A498 renal
# HT29 colon = system: HT29 colon
# U251 CNS = system: U251 CNS
# M14 melanoma = system: M14 melanoma
# SK-MEL-5 melanoma = system: SK-MEL-5 melanoma
# M19-MEL melanoma = system: M19-MEL melanoma
# SK-OV-3 ovarian = system: SK-OV-3 ovarian
# NCI-H226 lung = system: NCI-H226 lung
# SF-539 CNS = system: SF-539 CNS
# OVCAR-8 ovarian = system: OVCAR-8 ovarian
# HCT-116 colon = system: HCT-116 colon
# NCI-H23 lung = system: NCI-H23 lung
# K-562 leukemia = system: K-562 leukemia
# RPMI-8226 leukemia = system: RPMI-8226 leukemia
# UACC-62 melanoma = system: UACC-62 melanoma
# HCT-15 colon = system: HCT-15 colon
# NCI-H460 lung = system: NCI-H460 lung
# COLO 205 colon = system: COLO 205 colon
# LOX IMVI melanoma = system: LOX IMVI melanoma
# RXF 393 renal = system: RXF 393 renal
# SF-268 CNS = system: SF-268 CNS
# SK-MEL-2 melanoma = system: SK-MEL-2 melanoma
# MDA-MB-231 breast = system: MDA-MB-231 breast
# MDA-N = system: MDA-N
# XF 498 CNS = system: XF 498 CNS
# DLD-1 colon = system: DLD-1 colon
# HOP-92 NSCLC = system: HOP-92 NSCLC
# BT-549 breast = system: BT-549 breast
# DMS 273 small cell lung = system: DMS 273 small cell lung
# SR leukemia = system: SR leukemia
# MDA-MB-435 = system: MDA-MB-435
# HS 578T breast = system: HS 578T breast
# NCI/ADR-RES ovarian = system: NCI/ADR-RES ovarian
# PC-3 prostate = system: PC-3 prostate
# MCF7 breast = system: MCF7 breast
# DU-145 prostate = system: DU-145 prostate
# T-47D breast = system: T-47D breast
compound,measurement,setting,value
Cn1cc(-c2ccc3c4ccccc4n(C)c3c2)c2ccccc21,TGI,SNB-78 CNS,> 100 µM
same,TGI,HOP-18 NSCLC,> 100 µM
same,TGI,OVCAR-4 ovarian,> 100 µM
same,TGI,HOP-62 NSCLC,> 100 µM
same,TGI,OVCAR-3 ovarian,> 100 µM
same,TGI,UO-31 renal,> 100 µM
same,TGI,786-0 renal,> 100 µM
same,TGI,SNB-19 CNS,> 100 µM
same,TGI,IGROV1 ovarian,> 100 µM
same,TGI,UACC-257 melanoma,> 100 µM
same,TGI,SN12C renal,> 100 µM
same,TGI,HL-60(TB) leukemia,> 100 µM
same,TGI,A549 NSCLC,> 100 µM
same,TGI,CAKI-1 renal,> 100 µM
same,TGI,OVCAR-5 ovarian,> 100 µM
same,TGI,MOLT-4 leukemia,> 100 µM
same,TGI,SNB-75 CNS,> 100 µM
same,TGI,SK-MEL-28 melanoma,> 100 µM
same,TGI,LXFL 529 NSCLC,> 100 µM
same,TGI,HCC-2998 colon,> 100 µM
same,TGI,CCRF-CEM leukemia,> 100 µM
same,TGI,KM12 colon,> 100 µM
same,TGI,DMS 114 small cell lung,> 100 µM
same,TGI,SF-295 CNS,> 100 µM
same,TGI,KM20L2 colon,> 100 µM
same,TGI,MALME-3M melanoma,> 100 µM
same,TGI,TK-10 renal,> 100 µM
same,TGI,SW-620 colon,> 100 µM
same,TGI,NCI-H522 lung,> 100 µM
same,TGI,ACHN renal,> 100 µM
same,TGI,EKVX NSCLC,> 100 µM
same,TGI,A498 renal,> 100 µM
same,TGI,HT29 colon,> 100 µM
same,TGI,U251 CNS,> 100 µM
same,TGI,M14 melanoma,> 100 µM
same,TGI,SK-MEL-5 melanoma,> 100 µM
same,TGI,M19-MEL melanoma,> 100 µM
same,TGI,SK-OV-3 ovarian,> 100 µM
same,TGI,NCI-H226 lung,> 100 µM
same,TGI,SF-539 CNS,> 100 µM
same,TGI,OVCAR-8 ovarian,> 100 µM
same,TGI,HCT-116 colon,> 100 µM
same,TGI,NCI-H23 lung,> 100 µM
same,TGI,K-562 leukemia,> 100 µM
same,TGI,RPMI-8226 leukemia,> 100 µM
same,TGI,UACC-62 melanoma,> 100 µM
same,TGI,HCT-15 colon,> 100 µM
same,TGI,NCI-H460 lung,> 100 µM
same,TGI,COLO 205 colon,> 100 µM
same,TGI,LOX IMVI melanoma,> 100 µM
same,TGI,RXF 393 renal,> 100 µM
same,TGI,SF-268 CNS,> 100 µM
same,TGI,SK-MEL-2 melanoma,> 100 µM
COc1ccc2[nH]c3c(C)c4c(c(C)c3c2c1)CN(C)C=C4,TGI,MDA-MB-231 breast,70 µM
same,TGI,SNB-78 CNS,4.91 µM
same,TGI,HOP-18 NSCLC,47.7 µM
same,TGI,OVCAR-4 ovarian,18.2 µM
same,TGI,HOP-62 NSCLC,3.53 µM
same,TGI,OVCAR-3 ovarian,34.9 µM
same,TGI,UO-31 renal,81.1 µM
same,TGI,786-0 renal,4.05 µM
same,TGI,SNB-19 CNS,3.66 µM
same,TGI,IGROV1 ovarian,39.8 µM
same,TGI,UACC-257 melanoma,16.8 µM
same,TGI,SN12C renal,0.985 µM
same,TGI,MDA-N,34.6 µM
same,TGI,HL-60(TB) leukemia,52.3 µM
same,TGI,XF 498 CNS,5.78 µM
same,TGI,A549 NSCLC,23.6 µM
same,TGI,CAKI-1 renal,57.5 µM
same,TGI,OVCAR-5 ovarian,47 µM
same,TGI,MOLT-4 leukemia,37.7 µM
same,TGI,SNB-75 CNS,0.698 µM
same,TGI,DLD-1 colon,32.2 µM
same,TGI,SK-MEL-28 melanoma,13.5 µM
same,TGI,LXFL 529 NSCLC,3.61 µM
same,TGI,HCC-2998 colon,13.9 µM
same,TGI,CCRF-CEM leukemia,34.7 µM
same,TGI,KM12 colon,10.6 µM
same,TGI,DMS 114 small cell lung,3.05 µM
same,TGI,SF-295 CNS,2.7 µM
same,TGI,KM20L2 colon,21.1 µM
same,TGI,MALME-3M melanoma,3.92 µM
same,TGI,TK-10 renal,65.8 µM
same,TGI,SW-620 colon,18.3 µM
same,TGI,NCI-H522 lung,6.34 µM
same,TGI,ACHN renal,64 µM
same,TGI,EKVX NSCLC,38.8 µM
same,TGI,A498 renal,21.3 µM
same,TGI,HT29 colon,22.3 µM
same,TGI,HOP-92 NSCLC,19.5 µM
same,TGI,U251 CNS,1.45 µM
same,TGI,BT-549 breast,4.41 µM
same,TGI,M14 melanoma,22.7 µM
same,TGI,SK-MEL-5 melanoma,6.75 µM
same,TGI,M19-MEL melanoma,5.53 µM
same,TGI,SK-OV-3 ovarian,56.6 µM
same,TGI,DMS 273 small cell lung,10.3 µM
same,TGI,NCI-H226 lung,1.36 µM
same,TGI,SF-539 CNS,2 µM
same,TGI,SR leukemia,46.3 µM
same,TGI,OVCAR-8 ovarian,13.6 µM
same,TGI,HCT-116 colon,22.1 µM
same,TGI,MDA-MB-435,71.2 µM
same,TGI,NCI-H23 lung,3.28 µM
same,TGI,HS 578T breast,1480 nM
same,TGI,NCI/ADR-RES ovarian,> 100 µM
same,TGI,K-562 leukemia,46.5 µM
same,TGI,RPMI-8226 leukemia,61.9 µM
same,TGI,UACC-62 melanoma,28.1 µM
same,TGI,PC-3 prostate,81.3 µM
same,TGI,MCF7 breast,> 100 µM
same,TGI,HCT-15 colon,75.1 µM
same,TGI,DU-145 prostate,33.8 µM
same,TGI,NCI-H460 lung,11.2 µM
same,TGI,COLO 205 colon,10.3 µM
same,TGI,LOX IMVI melanoma,28.1 µM
same,TGI,RXF 393 renal,30.4 µM
same,TGI,SF-268 CNS,0.815 µM
same,TGI,T-47D breast,14.9 µM
same,TGI,SK-MEL-2 melanoma,9.8 µM
CC(C)(C)C1=CC(=N/N=c2\scc(-c3ccccc3)n2Cc2ccccc2)C=C(C(C)(C)C)C1=O,TGI,OVCAR-4 ovarian,> 100 µM
same,TGI,HOP-62 NSCLC,> 100 µM
same,TGI,OVCAR-3 ovarian,> 100 µM
same,TGI,UO-31 renal,> 100 µM
same,TGI,786-0 renal,> 100 µM
same,TGI,SNB-19 CNS,> 100 µM
same,TGI,UACC-257 melanoma,> 100 µM
same,TGI,SN12C renal,> 100 µM
same,TGI,HL-60(TB) leukemia,> 100 µM
same,TGI,XF 498 CNS,> 100 µM
same,TGI,A549 NSCLC,> 100 µM
same,TGI,CAKI-1 renal,> 100 µM
same,TGI,OVCAR-5 ovarian,> 100 µM
same,TGI,MOLT-4 leukemia,> 100 µM
same,TGI,SNB-75 CNS,> 100 µM
same,TGI,SK-MEL-28 melanoma,> 100 µM
same,TGI,LXFL 529 NSCLC,> 100 µM
same,TGI,HCC-2998 colon,> 100 µM
same,TGI,CCRF-CEM leukemia,> 100 µM
same,TGI,DMS 114 small cell lung,> 100 µM
same,TGI,SF-295 CNS,> 100 µM
same,TGI,KM20L2 colon,> 100 µM
same,TGI,MALME-3M melanoma,> 100 µM
same,TGI,SW-620 colon,> 100 µM
same,TGI,ACHN renal,> 100 µM
same,TGI,EKVX NSCLC,> 100 µM
same,TGI,A498 renal,> 100 µM
same,TGI,HT29 colon,> 100 µM
same,TGI,U251 CNS,> 100 µM
same,TGI,M14 melanoma,> 100 µM
same,TGI,SK-MEL-5 melanoma,> 100 µM
same,TGI,M19-MEL melanoma,> 100 µM
same,TGI,DMS 273 small cell lung,> 100 µM
same,TGI,NCI-H226 lung,> 100 µM
same,TGI,SF-539 CNS,> 100 µM
same,TGI,SR leukemia,> 100 µM
same,TGI,OVCAR-8 ovarian,> 100 µM
same,TGI,HCT-116 colon,> 100 µM
same,TGI,NCI-H23 lung,> 100 µM
same,TGI,K-562 leukemia,> 100 µM
same,TGI,UACC-62 melanoma,> 100 µM
same,TGI,HCT-15 colon,> 100 µM
same,TGI,NCI-H460 lung,> 100 µM
same,TGI,COLO 205 colon,> 100 µM
same,TGI,LOX IMVI melanoma,> 100 µM
same,TGI,RXF 393 renal,> 100 µM
same,TGI,SF-268 CNS,> 100 µM
same,TGI,SK-MEL-2 melanoma,> 100 µM
